Earlier results, collected in PubChem BioAssay AID1259409 (Chemical Carcinogenesis Research Information System (CCRIS), 2018).

Tested on: rodent chemically induced tumor inhibition, incidence and multiplicity
Assay: CCRIS tumor inhibitor studies

COc1ccc(CCN(C)CCCC(C#N)(c2ccc(OC)c(OC)c2)C(C)C)cc1OC (centres undefined)
tumour outcome (control, treated, inhibition, significance) (Carcinogen: 7,12-DIMETHYLBENZ[A]ANTHRACENE, 57-97-6, Dose [Inhibitor]: 0, 3.5 MG/KG/D IN DRINKING WATER (STUDY DURATION: 20 WK), Route [Inhibitor]: ORAL, Species: RAT, Strain/Sex: SPRAGUE-DAWLEY/FEMALE, Target Tissue: Type of Lesion: MAMMARY GLAND: TUMOR, Dose [Carcinogen]: 50 MG/KG ONCE, Promoter: NONE USED): 9/20 (45%), 3/20(15%), 67%, p< 0.05 | tumour outcome (control, treated, inhibition, significance) (Carcinogen: 7,12-DIMETHYLBENZ[A]ANTHRACENE, 57-97-6, Dose [Inhibitor]: 0, 2 UMOL 1/WK FOR 21 WK APPLIED 1 HR POST EACH PROMOTER DOSE (STUDY DURATION: 21 WK), Route [Inhibitor]: DERMAL, Species: MOUSE, Strain/Sex: SENCAR/FEMALE, Target Tissue: Type of Lesion: SKIN: PAPILLOMA, Dose [Carcinogen]: 25 NMOL ONCE, Promoter: CHRYSAROBIN, 491-58-7): 90%, 82%, 9%, not significant | tumour outcome (control, treated, inhibition, significance) (Carcinogen: N-NITROSOMORPHOLINE, 59-89-2, Dose [Inhibitor]: 0, 20 MG/KG BW IN 0.9% SALINE 1/2 D FOR DURATION OF STUDY (STUDY DURATION: 16 WK), Route [Inhibitor]: INTRAPERITONEAL, Species: RAT, Strain/Sex: SPRAGUE-DAWLEY/MALE, Target Tissue: Type of Lesion: LIVER: HEPATOCELLULAR CARCINOMA, Dose [Carcinogen]: 175 MG/L IN DRINKING WATER FOR 8 WK, Promoter: NONE USED): 10/20 (50%), 3/20 (15%), 70%, p<0.05

COc1c2occc2cc2ccc(=O)oc12
outcome (Carcinogen: 4-(N-methyl-N-nitrosamino)-1-(3-pyridyl)-1-butanone, 64091-91-4, Dose [Inhibitor]: 0, 1, 10, 100 ppm in diet for 3 d beginning at 7 wks of age, tumors collected 16 wk after treatment, Route [Inhibitor]: Oral, Species: Mouse, Strain/Sex: A/J/Female, Target Tissue: Type of Lesion: Lung: Adenomas, Dose [Carcinogen]: Single dose of 2 mg 3 days after first inhibitor treatment (Test material solvent: saline), Promoter: None): 12/20 (75%), 17/20 (95%), 14/20 (70%), 10/20 (50%), p<0.001
